For 29 compounds, inhibition results are on record in patent US20140243334A1, “SUBSTITUTED HYDOXAMIC ACIDS AND USES THEREOF” (Millennium Pharmaceuticals, Inc., priority 2010, published 2014).

What is called inhibition is the share of the control response that was lost under treatment.

The target in the assay is T1, purified human HDAC6 (Homo sapiens, UniProt Q9UBN7).
T1 construct: purchased BPS Bioscience 5006
T1 sequence (Q9UBN7 1-1215): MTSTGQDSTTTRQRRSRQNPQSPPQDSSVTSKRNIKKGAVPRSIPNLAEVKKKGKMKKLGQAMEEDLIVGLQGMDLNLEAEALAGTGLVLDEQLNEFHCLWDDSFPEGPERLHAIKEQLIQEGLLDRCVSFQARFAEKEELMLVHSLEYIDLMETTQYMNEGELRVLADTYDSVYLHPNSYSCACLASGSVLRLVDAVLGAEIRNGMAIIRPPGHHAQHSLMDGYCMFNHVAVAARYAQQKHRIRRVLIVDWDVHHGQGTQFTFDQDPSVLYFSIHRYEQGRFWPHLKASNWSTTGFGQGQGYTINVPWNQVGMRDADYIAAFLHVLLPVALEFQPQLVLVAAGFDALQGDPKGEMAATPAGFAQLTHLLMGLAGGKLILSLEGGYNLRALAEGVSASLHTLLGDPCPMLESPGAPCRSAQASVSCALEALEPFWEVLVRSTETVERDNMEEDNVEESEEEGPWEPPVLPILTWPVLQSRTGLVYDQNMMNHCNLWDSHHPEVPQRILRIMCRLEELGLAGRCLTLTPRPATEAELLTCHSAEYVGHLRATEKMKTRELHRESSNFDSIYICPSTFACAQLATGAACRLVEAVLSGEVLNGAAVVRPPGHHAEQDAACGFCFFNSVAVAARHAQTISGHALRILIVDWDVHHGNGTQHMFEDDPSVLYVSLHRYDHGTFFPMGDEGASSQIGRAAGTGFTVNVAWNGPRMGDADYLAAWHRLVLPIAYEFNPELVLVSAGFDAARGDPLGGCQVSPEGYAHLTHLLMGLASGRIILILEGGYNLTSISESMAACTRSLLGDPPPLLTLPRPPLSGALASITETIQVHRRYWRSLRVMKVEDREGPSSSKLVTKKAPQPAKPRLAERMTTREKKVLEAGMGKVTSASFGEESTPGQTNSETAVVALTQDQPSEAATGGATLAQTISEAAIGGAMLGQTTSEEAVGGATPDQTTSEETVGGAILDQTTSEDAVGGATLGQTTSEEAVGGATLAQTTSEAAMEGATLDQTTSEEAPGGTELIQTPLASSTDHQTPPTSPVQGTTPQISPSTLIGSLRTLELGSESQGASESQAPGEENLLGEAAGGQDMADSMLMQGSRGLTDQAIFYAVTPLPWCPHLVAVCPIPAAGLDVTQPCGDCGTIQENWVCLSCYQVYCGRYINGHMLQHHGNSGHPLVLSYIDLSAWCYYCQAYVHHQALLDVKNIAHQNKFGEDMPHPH
Kind of assay: HDAC6 Enzyme Assay. The settings on record: HDAC6 inhibition at a compound concentration of 0.412 μM; read-out: Percent Inhibition at 0.412 μM. It is filed as biochemical. How it is done:
To measure the inhibition of HDAC6 activity, purified human HDAC6 (BPS Bioscience; Cat. No. 5006) is incubated with substrate Ac-Arg-Gly-Lys(Ac)-AMC peptide (Bachem Biosciences; Cat. No. I-1925) for 1 hour at 30° C. in the presence of test compounds or vehicle DMSO control. The reaction is stopped with the HDAC inhibitor trichostatin A (Sigma; Cat. No. T8552) and the amount of Arg-Gly-Lys-AMC generated is quantitated by digestion with trypsin (Sigma; Cat. No. T1426) and subsequent measurement of the amount of AMC released using a fluorescent plate reader (Pherastar; BMG Technologies) set at Ex 340 nm and Em 460 nm. Concentration response curves are generated by calculating the fluorescence increase in test compound-treated samples relative to DMSO-treated controls, and enzyme inhibition (IC50) values are determined from those curves.

As for `O=C(NO)C1CCc2cc(F)c(Oc3ccnc(NC(=O)C4CC4)c3)cc2C1` (centres unmarked) [Compound I-32, 7-({2-[(cyclopropylcarbonyl)amino]pyridin-4-yl}oxy)-6-fluoro-N-hydroxy-1,2,3,4-tetrahydronaphthalene-2-carboxamide], the inhibition at 0.412 µM stood at 91%.
With `O=C(NO)C1CCc2ccc(Nc3ccncc3)cc2C1` (centres unmarked) [Compound I-33, N-hydroxy-7-(pyridin-4-ylamino)-1,2,3,4-tetrahydronaphthalene-2-carboxamide] the figure was 57%; with `O=C(NO)C1CCc2ccc(C#Cc3ccccc3)cc2C1` (centres unmarked) [Compound I-34, N-hydroxy-7-(phenylethynyl)-1,2,3,4-tetrahydronaphthalene-2-carboxamide], 57%; with `Cn1cc(-c2cc(C(=O)Nc3ccc4c(c3)CC(C(=O)NO)CC4)cc(C(F)(F)F)c2)cn1` (centres unmarked) [Compound I-35, N-hydroxy-7-{[3-(1-methyl-1H-pyrazol-4-yl)-5-(trifluoromethyl)benzoyl]amino}-1,2,3,4-tetrahydronaphthalene-2-carboxamide], 87%.
Take `O=C(NO)C1CCc2ccc(CCc3ccccc3)cc2C1` (centres unmarked) [Compound I-36, N-hydroxy-7-(2-phenylethyl)-1,2,3,4-tetrahydronaphthalene-2-carboxamide]: the inhibition at 0.412 µM was determined as 37%.
With `CN(C)Cc1cc(C(=O)Nc2ccc3c(c2)CC(C(=O)NO)CC3)cc(C(F)(F)F)c1` (centres unmarked) [Compound I-37, 7-{[3-[(dimethylamino)methyl]-5-(trifluoromethyl)benzoyl]amino}-N-hydroxy-1,2,3,4-tetrahydronaphthalene-2-carboxamide], the inhibition at 0.412 µM is 55%.
As to `O=C(NO)C1CCc2ccc(NCc3cccnc3)cc2C1` (centres unmarked) [Compound I-38, N-hydroxy-7-[(pyridin-3-ylmethyl)amino]-1,2,3,4-tetrahydronaphthalene-2-carboxamide], the inhibition at 0.412 µM was 57%.
As for `NC(=O)c1ccc2c(c1)CC(C(=O)NO)CC2` (centres unmarked) [Compound I-39, N^2-hydroxy-1,2,3,4-tetrahydronaphthalene-2,7-dicarboxamide], the figure is 76%; as for `CN(C)c1ccc2c(c1)CC(C(=O)NO)CC2` (centres unmarked) [Compound I-40, 7-(dimethylamino)-N-hydroxy-1,2,3,4-tetrahydronaphthalene-2-carboxamide], 46%.
With `O=C(NO)C1CCc2ccc(Oc3cccc(OCc4ccccc4)c3)cc2C1` (centres unmarked) [Compound I-41, 7-[3-(benzyloxy)phenoxy]-N-hydroxy-1,2,3,4-tetrahydronaphthalene-2-carboxamide] the figure was 64%; with `N#Cc1ccc2c(c1)CC(C(=O)NO)CC2` (centres unmarked) [Compound I-42, 7-cyano-N-hydroxy-1,2,3,4-tetrahydronaphthalene-2-carboxamide], 62%.
As for `O=C(NC1CC1)c1cccc(Oc2ccc3c(c2)CC(C(=O)NO)CC3)c1` (centres unmarked) [Compound I-43, 7-{3-[(cyclopropylamino)carbonyl]phenoxy}-N-hydroxy-1,2,3,4-tetrahydronaphthalene-2-carboxamide], the figure is 19%; as for `CN(C)CCOc1ccc2c(c1)CC(C(=O)NO)CC2` (centres unmarked) [Compound I-44, 7-[2-(dimethylamino)ethoxy]-N-hydroxy-1,2,3,4-tetrahydronaphthalene-2-carboxamide], 34%; as for `CC(C)(C)NC(=O)c1ccc2c(c1)CC(C(=O)NO)CC2` (centres unmarked) [Compound I-45, N^7-(tert-butyl)-N^2-hydroxy-1,2,3,4-tetrahydronaphthalene-2,7-dicarboxamide], 79%.
In the case of `CN(C)CCOc1cccc(Oc2ccc3c(c2)CC(C(=O)NO)CC3)c1` (centres unmarked) [Compound I-46, 7-{3-[2-(dimethylamino)ethoxy]phenoxy}-N-hydroxy-1,2,3,4-tetrahydronaphthalene-2-carboxamide], the inhibition at 0.412 µM turned out to be 78%.
In the case of `CC(C)c1cccc(Oc2ccc3c(c2)CC(C(=O)NO)CC3)c1` (centres unmarked) [Compound I-47, N-hydroxy-7-(3-isopropylphenoxy)-1,2,3,4-tetrahydronaphthalene-2-carboxamide], the inhibition at 0.412 µM worked out at 74%.
With `O=C(NO)C1CCc2ccc(-c3cccc(OCc4ccccc4)c3)cc2C1` (centres unmarked) [Compound I-48, 7-[3-(benzyloxy)phenyl]-N-hydroxy-1,2,3,4-tetrahydronaphthalene-2-carboxamide] the figure was 73%; with `O=C(NO)C1CCc2ccc(-c3cccc(Cl)c3)cc2C1` (centres unmarked) [Compound I-49, 7-(3-chlorophenyl)-N-hydroxy-1,2,3,4-tetrahydronaphthalene-2-carboxamide], 82%.
As for `O=C(NO)C1CCc2ccc(Oc3cccc(NC(=O)C4CC4)c3)cc2C1` (centres unmarked) [Compound I-50, 7-{3-[(cyclopropylcarbonyl)amino]phenoxy}-N-hydroxy-1,2,3,4-tetrahydronaphthalene-2-carboxamide], the figure is 84%.
As for `O=C(NC1CC1)c1cccc(-c2ccc3c(c2)CC(C(=O)NO)CC3)c1` (centres unmarked) [Compound I-51, 7-{3-[(cyclopropylamino)carbonyl]phenyl}-N-hydroxy-1,2,3,4-tetrahydronaphthalene-2-carboxamide], the figure is 88%.
`CC(C)(C)OC(=O)Nc1ccc(Oc2ccc3c(c2)CC(C(=O)NO)CC3)cc1` (centres unmarked) [Compound I-52, tert-butyl [4-({7-[(hydroxyamino)carbonyl]-5,6,7,8-tetrahydronaphthalen-2-yl}oxy)phenyl]carbamate]: the inhibition at 0.412 µM stood at 74%.
Consider `CC(C)(C)OC(=O)Nc1cccc(Oc2ccc3c(c2)CC(C(=O)NO)CC3)c1` (centres unmarked) [Compound I-53, tert-Butyl [3-({7-[(hydroxyamino)carbonyl]-5,6,7,8-tetrahydronaphthalen-2-yl}oxy)phenyl]carbamate], for which the inhibition at 0.412 µM was 83%.
Regarding `O=C(NO)C1CCc2ccc(-c3cc4ccccc4[nH]3)cc2C1` (centres unmarked) [Compound I-54, N-hydroxy-7-(1H-indol-2-yl)-1,2,3,4-tetrahydronaphthalene-2-carboxamide], the inhibition at 0.412 µM was 82%.
As for `CS(=O)(=O)Nc1cccc(Oc2ccc3c(c2)CC(C(=O)NO)CC3)c1` (centres unmarked) [Compound I-55, N-hydroxy-7-{3-[(methylsulfonyl)amino]phenoxy}-1,2,3,4-tetrahydronaphthalene-2-carboxamide], the figure is 93%; as for `O=C(NO)C1CCc2ccc(Oc3ccc(NC(=O)C4CC4)cc3)cc2C1` (centres unmarked) [Compound I-56, 7-{4-[(cyclopropylcarbonyl)amino]phenoxy}-N-hydroxy-1,2,3,4-tetrahydronaphthalene-2-carboxamide], 82%.
For the compound `CNC(=O)Nc1cccc(Oc2ccc3c(c2)CC(C(=O)NO)CC3)c1` (centres unmarked) [Compound I-57, N-hydroxy-7-(3-{[(methylamino)carbonyl]amino}phenoxy)-1,2,3,4-tetrahydronaphthalene-2-carboxamide], the inhibition at 0.412 µM was found to be 73%.
For the compound `CN(C)CCOc1cccc(-c2ccc3c(c2)CC(C(=O)NO)CC3)c1` (centres unmarked) [Compound I-58, 7-{3-[2-(dimethylamino)ethoxy]phenyl}-N-hydroxy-1,2,3,4-tetrahydronaphthalene-2-carboxamide], the inhibition at 0.412 µM came out at 87%.
With `O=C(NO)C1CCc2ccc(Oc3cccc(NCc4ccccc4)c3)cc2C1` (centres unmarked) [Compound I-59, 7-[3-(benzylamino)phenoxy]-N-hydroxy-1,2,3,4-tetrahydronaphthalene-2-carboxamide] the figure was 76%.
With `O=C(NO)C1CCc2ccc(-c3cccnc3)cc2C1` (centres unmarked) [Compound I-60, N-hydroxy-7-pyridin-3-yl-1,2,3,4-tetrahydronaphthalene-2-carboxamide] the figure was 75%.
